Results reported in patent publication US5830910A (priority 1995, dated 1998).
Read-outs that look alike come from different tables or passages of the source.

What was measured:
[1] = system: cultured hippocampal neurons; experiment: iron (FeSO4) neurotoxicity; assay type: cell-based, rat
Text: (§1) Dissociated embryonic rat hippocampal cell cultures were established and maintained. All procedures conformed with the NIH Guide for the Care and Use of Laboratory Animals and were approved by the University of Kentucky Animal Care and Use Committee. Cultures were maintained on a polyethyleneimine-coated substrate in plastic 35-mm dishes or 96 wall plates (for cell survival studies) or glass-bottom 35-mm dishes (for [Ca^2+ ]i imaging studies). The cell density was ^~ 70-100 cells/mm^2. Cells were maintained in Eagle's minimum essential medium supplemented 10% with fetal bovine serum and containing 20 mM sodium pyruvate. […] Aβ25-35 (Bachem, lot ZJ744) and Aβ1-40 (Bachem, lot ZK600) were stored in the lyophilized form, and stocks were prepared immediately before use by dissolving the peptide at a concentration of 1 mM in sterile distilled water. […] Glutamate and colchicine (Sigma) were prepared as 200-500x stocks in saline. Cytochalasins D and E (Sigma) and calcium ionophore 4-bromo-A23187 (Calbiochem) were prepared as 500x stocks in dimethyl sulfoxide. Vitamin E (α-tocopherol; Sigma) was prepared as a 500x stock in ethanol. Nordihydroguaiaretic acid and FeSo4 were prepared as 500x stocks in sterile water.
(§2) Neuronal survival was quantified by counting viable neurons in the same microscope fields (10x objective) immediately before experimental treatment and at time points after treatment. In addition, cells were grown in 96-well plates and Alamar blue fluorescence (Alamar Laboratories)was quantified by using a fluorescence plate reader. Alamar Blue is a non-fluorescent substrate that, after reduction by cell metabolites, becomes fluorescent. Usually neurons that died in the time intervals (20-48 h) between examination points were absent. Viability of the remaining neurons was assessed by morphological criteria. Neutrons with intact neurites of uniform diameter and a soma with a smooth, round appearance were considered viable, whereas neurons with fragmented neurites and a vacuolated or swollen soma were considered nonviable. Survival values were expressed as percentages of the initial number of neurons present before experimental treatment. Statistical comparisons were made using ANOVA and Scheffe post-hoc tests for pairwise comparisons.
FIG. 8. Cultures were preincubated 1 h in the presence of 0.5% dimethylsulfoxide (control), 100 nM cytochalasin D, 50 μg/ml vitamin E (VitE), or 2 μM nordihydroguairetic acid (NDGA). Cultures were then exposed for 6 h to the indicated concentrations of FeSO4 and neuronal survival was quantified. Values represent the means and SEM of determinations made in four separate cultures. *P<0.001 compared to value for cultures exposed to 100 μM FeSO4 alone.

[2] = system: cultured hippocampal neurons; experiment: cells; assay type: cell-based, rat
[3] = system: neuronal [Ca^2+]i in cultured hippocampal neurons; experiment: measurement of [Ca^2+]i, fura-2 imaging; assay type: cell-based, rat; conditions: 10 μM, 3 h pretreatment; 50 μM glutamate
Text: as §1
Fluorescence ratio imaging of the Ca^2+ indicator dye fura-2 was used to quantify [Ca^2+ ]i in neuronal somata. Cells were incubated for 30-40 min in the presence of 2 μM acetoxymethyl ester form of the [Ca^2+ ]i indicator dye fura-2 and were then washed twice (2 ml/wash) with fresh medium and allowed to incubate at least 40 min before imaging. Immediately before imaging, the normal culture medium was replaced with Hanks' balanced saline solution (GIBCO) containing 10 mM HEPES buffer and 10 mM of glucose. Cells were imaged using a Zeiss Attofluor system with a oil objective or Quantex system with a 40x oil objective. The ratio of the fluorescence emission using two different excitation wavelengths (334 and 380 nm) was used to determine [Ca^2+ ]i. The system was calibrated using solutions containing either no Ca^2+ or a saturating level of Ca^2+ (1 mM) according to the following formula: [Ca^2+ ]i =KD [(R-Rmin) / (Rmax -R)] (F0 /FS). Values represent the average [Ca^2+ ]i in the neuronal cell body. Experimental treatments were added to the bathing medium by dilution from 100-500x stocks.
(A) Cultures were pretreated for 1 hr with 100 nM cytochalasin D and then [Ca^2+ ]i in neurons was monitored prior to and following exposure to 50 μM glutamate. The records represent the mean [Ca^2+ ]i in 8-12 neurons. Similar results were obtained in 4 separate experiments.
(B) Aβ-induced potentiation of [Ca^2+ ]i response to glutamate is abrogated by cytochalasin D. Cultures were left untreated (Control) or were exposed to 20 μM Aβ25-35 for 6 hr or cytochalasin D plus Aβ25-35 for 6 hr. The [Ca^2+ ]i was then monitored prior to following exposure to 50 μM glutamate. Values represent the means of 8-14 neurons. Similar results were obtained in 3 separate experiments.
(C) Cultures were pretreated for 3 hr with 50 μM Aβ alone or in combination with 100 nM cytochalasin D. The [Ca^2+ ]i in neurons was then monitored prior to and following exposure to 50 mM KCl. Values represent the mean of 14-23 neurons. Similar results were obtained in a separate experiment.
(D) Cultures were pretreated for 1 h with 100 nM cytochalasin D. The [Ca^2+ ]i in neurons was measured immediately prior to, and at 5 min following, exposure to the indicated concentrations of glutamate. Values represent the means and SEM of determinations made in 17-26 neurons. *P<0.05 (10 μM glutamate), P<0.02 (50 μM glutamate), P<0.01 (100 μAM glutamate) compared to corresponding control values.
FIG. 9. Cultures were pretreated for 3 h with vehicle (control) or 10 μM jasplakinolide. The [Ca^2+ ]i was monitored prior to and following exposure to 50 μM glutamate. Values represent the mean of determinations made in 10-12 neurons. Similar results were obtained in two additional experiments.
FIG. 10. […]

[4] = system: cultured hippocampal neurons; experiment: cells; assay type: cell-based, rat; conditions: Rattus norvegicus, Hippocampal neuron
Text: as §1, §2
Values represent the means and SEM of 4 separate cultures (cell counts) or 4 culture wells (Alamar blue assay). ^a p<0.05 compared to control value. ^b p<0.001 compound to control value. ^c p<0.01 compared to value for glutamate-treated cultures. ^d p<0.005 compared to value for glutamate-treated cultures. ^e p<0.001 compared to value for Aβ-treated cultures. ^f p<0.001 compared to value for cultures treated with 20 μM glutamate. ^g p<0.001 compared to cultures treated with 50 μM Aβ+20 μM glutamate. n.d. not determined.

[5] = system: cultured hippocampal neurons; experiment: cells; assay type: cell-based, rat; remark: listed apart in the source
Text: as §1, §2
FIG. 5. […] Cytochalasin D was added to cultures 30 min prior to exposure to glutamate, and control cultures were exposed to 0.2% dimethylsulfoxide.
(A) Neuronal survival was quantified in cultures that had been pretreated with the indicated concentrations of cytochalasin D and then exposed to 50 μM glutamate for 20 h. Values represent the means and SEM of determinations made in four separate cultures. […] Pairwise statistical comparisons of cytochalasin-treated cultures with the control survival (Scheffe's test) indicated 1 nM cytochalasin D, P<0.05; 10 nM cytochalasin D, P<0.001; 100 and 1000 nM cytochalasin D, P<0.0001.
(B) Neuronal survival was quantified in cultures that had been pretreated with either vehicle (control) or 100 nM cytochalasin D and then exposed to the indicated concentrations of glutamate for 20 h. Values represent the means and SEM of determinations made in four separate cultures. […] ANOVA with Scheffe's post hoc test.
FIG. 6. (A) Cultures were pretreated with 100 nM cytochalasin D (CyD), 100 nM cytochalasin E (CyE), or 100 nM colchicine (Colch). Cultures were then exposed to 50 μM glutamate for 20 h. Values for neuronal survival represent the means and SEM of determinations made in four separate cultures. *P<0.001 compared to control value. **P<0.001 compared to value for cultures exposed to glutamate alone.
[…] Values represent the means and SEM of determinations made in four separate cultures. *P<0.01 compared to value for cultures exposed to 20 μM glutamate alone. **P<0.05 compared to cultures exposed to 50 μM glutamate alone.

[6] = system: cultured hippocampal neurons; assay type: cell-based, rat
Text: as §1, §2
FIG. 12. (A) Cultures were pretreated for 1 h with vehicle 0.2% dimethyl sulfoxide (Control) or 100 nM cytochalasin D (CyD) and were exposed to the indicated concentrations of Aβ25-35 for 48 h. Data are mean and SEM values of determinations made in four separate cultures.
(B) Cultures were pretreated for 1 h with the indicated concentrations of cytochalasin D and then exposed to 50 μM Aβ25-35; parallel cultures were exposed to cytochalasin D alone (Control) . Data are mean and SEM values of determinations made in four separate cultures.
FIG. 14. Cultures were exposed to 100 nM colchicine; 50 μM Aβ; 100 nM colchicine plus 50 μM Aβ; 100 nM cytochalasin E (CyE) plus Aβ (colchicine and cytochalasin E were added 1 h before Aβ); neuronal survival was assessed 48 h later. Data are mean and SEM values of determinations made in four separate cultures. *p<0.01, compared with values for control or colchicine alone. **p<0.01, compared with value for cultures exposed to Aβ alone.

[7] = system: hippocampal region CA3 neurons; experiment: kainate lesion paradigm, CA3 neurons; assay type: in vivo, rat (Sprague-Dawley)
Description: A kainate lesion paradigm was employed in adult rats to determine whether cytochalasin D was also excitoprotective. Twenty-four adult male Sprague-Dawley rats (250-300 g) were divided into the indicated experimental groups (4-5 rats/group). Kainate (0.5 µg/[…]) was injected stereotaxically into region CA1 of the right hippocampus of anesthetized rats. Cytochalasin D (the indicated concentration in 1 μl of saline-1% DMSO) or vehicle was infused into the right lateral ventricle during a 5-10 min period immediately following kainate injection. Rats were killed 48 hr later and perfused transcardially with 4% paraformaldehyde. Brain sections (30 μm) were stained with cresyl violet and stained neurons in three adjacent 40X microscope fields of hippocampal region CA3 were counted (5 sections/rat) . The neuronal counts were performed in sections removed approximately 200-400 μm from the injection site. This method results in highly reproducible, 75-99%, neuronal loss in the CA3 region in over 99% of the rats injected with kainate (calculations based on 302 rats receiving intra-hippocampal kainate). […] Approximately 80% of the neurons were killed by kainate in control animals receiving an intracerebroventricular infusion of saline immediately following kainate administration.
Cresyl violet-stained coronal sections from brains of rats administered kainate alone (left) of kainate plus cytochalasin D (CyD; right). […] Lower micrographs are high magnification of a region of CA3 from the sections shown in the upper panels.
FIG. 3. Counts of viable neurons were made in region CA3 of Sham-operated rats, and rats infused intraventricularly with vehicle or increasing concentration of cytochalasin D […] unilateral kainate injection into region CA1 of the hippocampus. Neuronal survival in the kainate injected hippocampus is expressed as a percentage of neurons in the contralateral hippocampus. Values represent the mean and SEM (4 or 5 rats/group). *p<0.01 compared to value for sham rats. **p<0.01 compared to value for vehicle-infused rats. (ANOVA with Scheffe's post-hoc test).

[8] = read-out: Neuron Survival (% of control), Alamar Blue Assay

## O=S(=O)([O-])[O-].[Fe+2] [FeSo4]
[1]; FeSO4 10-100 nM as printed, 6 h
  loss of neurons: concentration-dependent loss of neurons

## CC1=CC(C)CC(C)OC(=O)CC(c2ccc(O)cc2)NC(=O)C(Cc2c(Br)[nH]c3ccccc23)N(C)C(=O)C(C)NC(=O)C(C)C1 (centres unmarked) [Jasplakinolide, jasplakinolide, reference compound]
[2]; preincubated 3 h, 10 μM (FIG. 6B legend: 1 h, 5 μM)
  effect on glutamate neurotoxicity: significantly potentiated
[3]
  effect on glutamate-induced elevation of [Ca^2+]i: potentiated

## N[C@@H](CCC(=O)O)C(=O)O [Glutamate, glutamate, reference compound]
[2]; Rattus norvegicus, Hippocampal neuron, 24 h, read-out: neuronal survival in cultures exposed to glutamate
  viability at 100 µM: < 20%
[4]; [8]
  viability at 20 µM: 74 ± 0.7%
  viability at 100 µM: 18 ± 5.4%
[4]; read-out: Neuron Survival (% of control), Cell Counts
  viability at 100 µM: 15 ± 3.3%
[5]; Rattus norvegicus, Hippocampal neuron, 20 h, read-out: ED50 for reduction in neuronal survival
  CC50: ~35 µM
[5]; Rattus norvegicus, Hippocampal neuron, 20 h, read-out: maximum killing of neurons
  cytotoxicity at 100 µM: > 80%
[5]; Rattus norvegicus, Hippocampal neuron, 20 h, read-out: neurons killed
  cytotoxicity at 50 µM: > 70%

## C[C@H]1C/C=C/[C@H]2[C@@H]3O[C@]3(C)[C@@H](C)[C@H]3[C@H](Cc4ccccc4)NC(=O)[C@]32OC(=O)O/C=C/[C@@](C)(O)C1=O [Cytochalasin E, cytochalasin E]
[6]; 100 nM, added 1 h before 50 μM Aβ, 48 h
  effect on Aβ neurotoxicity: attenuated Aβ neurotoxicity significantly
[6]; 10-100 nM
  protection against toxicity of Aβ: protected
[5]; 100 nM, 50 μM glutamate, 20 h
  protection against glutamate toxicity: significant protection against glutamate toxicity
[5]; 10-100 nM
  protection against toxicity of glutamate: protected

## CC(Cc1ccc(O)c(O)c1)C(C)Cc1ccc(O)c(O)c1 (centres unmarked) [nordihydro-guaiaretic acid, Nordihydroguaiaretic acid]
[1]; 50 μg/ml vitamin E or 2 μM NDGA, 1 h preincubation
  effect on neurotoxicity of iron: completely blocked

## C=C(C)[C@H]1CN[C@H](C(=O)O)[C@H]1CC(=O)O [Kainate, kainate, reference compound]
[7]; control animals receiving i.c.v. saline, 48 hr
  neurons killed by kainate: Approximately 80%
[7]; intrahippocampal kainate, over 99% of rats (302 rats)
  neuronal loss in the CA3 region: 75-99%
